The values below come from patent publication US3959272A, “Aminoalkyl esters of 2-anilino-nicotinic acids” (Societe Anonyme dite: Hexachime, priority 1972, dated 1976).

One assay is described as follows: Escape test. In kind it is in vivo. Conditions: Mus musculus, ip, 0.5 h, read-out: Percentage inhibition (number of attempts to escape); for change in vivo at 8 mg/kg: 8 mg/kg intraperitoneally; for change in vivo at 16 mg/kg: 16 mg/kg intraperitoneally; for change in vivo at 32 mg/kg: 32 mg/kg intraperitoneally; for change in vivo at 64 mg/kg: 64 mg/kg intraperitoneally; for change in vivo at 128 mg/kg: 128 mg/kg intraperitoneally; for change in vivo at 256 mg/kg: 256 mg/kg intraperitoneally. How it is done: Groups of 8 mice were placed in sub groups of 4 in an enclosure from which they could escape by an inclined plane. The number of attempts to escape during 5 minutes were counted half an hour after intraperitoneal administration of the compound under test.

A short description of assay [1]: Antagonism of convulsions produced by cardiazole. In kind it is in vivo. Conditions: Mus musculus, ip, read-out: Percentage inhibition of tonic convulsions; for inhibition in vivo at 16 mg/kg: 16 mg/kg intraperitoneally; for inhibition in vivo at 32 mg/kg: 32 mg/kg intraperitoneally; for inhibition in vivo at 64 mg/kg: 64 mg/kg intraperitoneally; for inhibition in vivo at 128 mg/kg: 128 mg/kg intraperitoneally; for inhibition in vivo at 4 mg/kg: 4 mg/kg intraperitoneally; for inhibition in vivo at 8 mg/kg: 8 mg/kg intraperitoneally; for inhibition in vivo at 256 mg/kg: 256 mg/kg intraperitoneally. How it is done:
Groups of 6 mice received the compound under test 30 minutes before introperitoneal injection of 160 mg/kg of cardiazole. The action of the compound under test on the tonic convulsion phase was observed.

A short description of assay [2]: Anti-inflammatory activity: oedema provoked by carragenin in the rat. It counts as in vivo. Conditions: po, read-out: percentage inhibition of oedema; for inhibition in vivo at 64 mg/kg: 64 mg/kg orally; for inhibition in vivo at 128 mg/kg: 128 mg/kg orally; for inhibition in vivo at 256 mg/kg: 256 mg/kg orally; for inhibition in vivo at 512 mg/kg: 512 mg/kg orally. How it is done:
The method used was as follows.
The anti-inflammatory activity was measured on oedema provoked by carragenin in the rat. Groups of six male rats each weighing 120 to 130 g received the compound under test orally in suspension in "tween 80", half the dose being given 2 hours before and the other half 1/2 hour before the subcutaneous plantar injection of 0.05 ml of a 1 % carragenin solution. The volume of the injected paw was measured by plethysmography at regular intervals. Table 1 below gives the percentage inhibition of the oedema with reference to untreated controls.

A short description of assay [3]: Analgesic activity: Siegmund's test (phenylbenzoquinone painful reactions). It counts as in vivo. Conditions: Mus musculus, po, read-out: percentage inhibition of reactions; for inhibition in vivo at 32 mg/kg: 32 mg/kg orally; for inhibition in vivo at 64 mg/kg: 64 mg/kg orally; for inhibition in vivo at 128 mg/kg: 128 mg/kg orally; for inhibition in vivo at 256 mg/kg: 256 mg/kg orally; for inhibition in vivo at 512 mg/kg: 512 mg/kg orally. The method, then:
This activity was measured by Siegmund's test in mice and Randall and Selitto's test in the rat.
Groups of six mice received the compound under test orally 1 hour before intraperitoneal injection of 0.2 ml of an 0.02% of solution of phenylbenzoquinone. The number of painful reactiors from the fifth to the tenth minute after the injection of phenylbenzoquinone was counted.

Assay [4] is described as follows: Analgesic activity: Randall and Selitto's test (beer yeast paw, pain threshold). In kind it is in vivo, rat. How it is done: This activity was measured by Siegmund's test in mice and Randall and Selitto's test in the rat. Groups of ten male rats each weight 120 to 140 g received by subcutaneous plantar injection 0.05 ml of a 5% aqueous suspension of beer yeast. 2 Hours after this treatment they received the compound under test orally and 1 hour after administration of this compound the paw which had been injected and the contralateral paw were subjected to increasing pressure. The appearance of the pain threshold was noted.

Assay [5] is described as follows: Potentiation of stereotypes by amphetamine. In kind it is in vivo, rat. Conditions: 5 mg/kg dexamphetamine sulphate. The method, then:
The compound under test was administered to groups of 5 rats intraperitoneally. Thirty minutes afterwards, 5 mg/kg of dexamphetamine sulphate was injected intraperitoneally. The duration of the phenomenon is counted at regular intervals from 0 to 4 and the counts are added up.

Setting [6] is: without yeast, 128 mg/kg orally.
Setting [7] is: without yeast, 256 mg/kg orally.

For the compound `Cc1cccc(Nc2ncccc2C(=O)OCCN2CCN(C)CC2)c1C` [Example 4, β-(N-methylpiperazino)ethyl nixylate], the change in vivo at 8 mg/kg in “Escape test” is 2%. The change in vivo at 16 mg/kg in “Escape test” is -11%. Besides, in “Escape test”, the change in vivo at 32 mg/kg was -37%. The change in vivo at 64 mg/kg in the assay “Escape test” was -61%. Also, the change in vivo at 128 mg/kg in the assay “Escape test” is -95%. In addition, the inhibition in vivo at 16 mg/kg in assay [1] turned out to be 0%. In addition, the inhibition in vivo at 32 mg/kg was 0% in assay [1] and 8% in assay [3]. Besides, the inhibition in vivo at 64 mg/kg turned out to be 58% in assay [1], 0% in assay [2] and 33% in assay [3]. The inhibition in vivo at 128 mg/kg stood at 91% in assay [1], 50% in assay [2] and 69% in assay [3]. The inhibition in vivo at 256 mg/kg in assay [2] was found to be 62%; in assay [3], 84%. Besides, the “percentage increase of pain threshold” value in assay [4] (with yeast, 16 mg/kg orally) worked out at 0%; in assay [4] (with yeast, 32 mg/kg orally) it was 31%; in assay [4] (with yeast, 64 mg/kg orally) it was 27%; in assay [4] (with yeast, 128 mg/kg orally), 61%; in assay [4] (with yeast, 256 mg/kg orally), 16%; in assay [4] (without yeast, 16 mg/kg orally) it was 8%. The “percentage increase of pain threshold” value worked out at 30% in assay [4] (without yeast, 32 mg/kg orally); 46% in assay [4] (without yeast, 64 mg/kg orally); 38% in assay [4] (setting [6]); 10% in assay [4] (setting [7]).
In the case of `Cc1cccc(Nc2ncccc2C(=O)OCCN2CCCCC2)c1C` [Example 2, β-Piperidino ethyl nixylate], in the assay “Escape test”, the change in vivo at 8 mg/kg worked out at 6%, the change in vivo at 16 mg/kg is -21%, the change in vivo at 32 mg/kg was -43% and the change in vivo at 64 mg/kg was -80%. Besides, the change in vivo at 128 mg/kg in the assay “Escape test” was -100%. Further, in assay [1], the inhibition in vivo at 4 mg/kg came to 0%, the inhibition in vivo at 8 mg/kg was 16%, the inhibition in vivo at 16 mg/kg is 5% and the inhibition in vivo at 32 mg/kg came out at 22%. Besides, in assay [1], the inhibition in vivo at 64 mg/kg stood at 72% and the inhibition in vivo at 128 mg/kg was determined as 100%. Besides, in assay [2], the inhibition in vivo at 64 mg/kg was 6%, the inhibition in vivo at 128 mg/kg was 42% and the inhibition in vivo at 256 mg/kg stood at 70%. In addition, in assay [3], the inhibition in vivo at 32 mg/kg stood at 24%, the inhibition in vivo at 64 mg/kg came to 48% and the inhibition in vivo at 128 mg/kg is 69%. Besides, the “percentage increase of pain threshold” value in assay [4] (with yeast, 64 mg/kg orally) stood at 5%. Also, the “percentage increase of pain threshold” value in assay [4] (with yeast, 128 mg/kg orally) is on record as 30%. In addition, the “percentage increase of pain threshold” value in assay [4] (with yeast, 256 mg/kg orally) is listed as 87%. Moreover, the “percentage increase of pain threshold” value in assay [4] (without yeast, 64 mg/kg orally) is on record as 0%. Further, in assay [4] (setting [6]), the “percentage increase of pain threshold” value came out at 52%. In addition, the “percentage increase of pain threshold” value in assay [4] (setting [7]) amounted to 33%.
Regarding `Cc1ccc(Cl)cc1Nc1ncccc1C(=O)OCCN1CCOCC1` [Example 8, β-Morpholino ethyl 2-(2-methyl-5-chloroanilino) nicotinate], in the assay “Escape test”, the change in vivo at 32 mg/kg is -25%, the change in vivo at 64 mg/kg was -52%, the change in vivo at 128 mg/kg was -62% and the change in vivo at 256 mg/kg was -83%. Besides, in assay [1], the inhibition in vivo at 32 mg/kg was found to be 0%, the inhibition in vivo at 64 mg/kg is 17%, the inhibition in vivo at 128 mg/kg turned out to be 33% and the inhibition in vivo at 256 mg/kg is 67%. The inhibition in vivo at 512 mg/kg in assay [1] (512 mg/kg intraperitoneally) is 100%. The “Sum of the counts (stereotypes)” value in assay [5] (32 mg/kg intraperitoneally) was determined as 89. Also, the “Sum of the counts (stereotypes)” value in assay [5] (64 mg/kg intraperitoneally) is listed as 87. Further, the “Sum of the counts (stereotypes)” value in assay [5] (128 mg/kg intraperitoneally) came out at 161. Moreover, the “Sum of the counts (stereotypes)” value in assay [5] (256 mg/kg intraperitoneally) is listed as 195. In assay [2], the inhibition in vivo at 64 mg/kg was determined as 0% and the inhibition in vivo at 256 mg/kg was found to be 36%. For the same compound, in assay [3], the inhibition in vivo at 256 mg/kg amounted to 18% and the inhibition in vivo at 512 mg/kg was found to be 74%.
As for `Cc1ccc(Nc2ncccc2C(=O)OCCN2CCOCC2)cc1Cl` [Example 7, β-Morpholino ethyl 2-(3-chloro-4-methylanilino) nicotinate], in the assay “Escape test”, the change in vivo at 16 mg/kg was -48%, the change in vivo at 64 mg/kg is -62% and the change in vivo at 256 mg/kg was -96%. Also, in assay [1], the inhibition in vivo at 64 mg/kg amounted to 0%, the inhibition in vivo at 128 mg/kg came to 9% and the inhibition in vivo at 256 mg/kg came to 59%. Moreover, in assay [2], the inhibition in vivo at 128 mg/kg was 2%, the inhibition in vivo at 256 mg/kg is 29% and the inhibition in vivo at 512 mg/kg was 53%. In assay [3], the inhibition in vivo at 32 mg/kg was found to be 14%, the inhibition in vivo at 64 mg/kg came to 33%, the inhibition in vivo at 128 mg/kg was determined as 55% and the inhibition in vivo at 256 mg/kg amounted to 55%. Also, the inhibition in vivo at 512 mg/kg in assay [3] worked out at 77%.
On to `O=C(OCCN1CCOCC1)c1cccnc1Nc1ccccc1` [Example 5, β-Morpholino ethyl 2-anilino nicotinate], for which, in “Escape test”, the change in vivo at 16 mg/kg was -12%, the change in vivo at 32 mg/kg is -5%, the change in vivo at 64 mg/kg is -23% and the change in vivo at 128 mg/kg was -20%. Also, the change in vivo at 256 mg/kg in the assay “Escape test” is -78%. Further, in assay [1], the inhibition in vivo at 4 mg/kg worked out at 0%, the inhibition in vivo at 8 mg/kg is 16%, the inhibition in vivo at 16 mg/kg turned out to be 33% and the inhibition in vivo at 32 mg/kg amounted to 33%. Moreover, in assay [1], the inhibition in vivo at 64 mg/kg came out at 16%, the inhibition in vivo at 128 mg/kg came out at 33% and the inhibition in vivo at 256 mg/kg was 100%. Also, the “Sum of the counts (stereotypes)” value in assay [5] (16 mg/kg intraperitoneally) is 14. For the same compound, the “Sum of the counts (stereotypes)” value in assay [5] (64 mg/kg intraperitoneally) was determined as 22. Further, the “Sum of the counts (stereotypes)” value in assay [5] (256 mg/kg intraperitoneally) was determined as 44. In addition, in assay [2], the inhibition in vivo at 128 mg/kg was 0%, the inhibition in vivo at 256 mg/kg was 17% and the inhibition in vivo at 512 mg/kg was 71%. For the same compound, in assay [3], the inhibition in vivo at 32 mg/kg was determined as 16%, the inhibition in vivo at 64 mg/kg turned out to be 38%, the inhibition in vivo at 128 mg/kg came to 57% and the inhibition in vivo at 256 mg/kg was found to be 83%.
On to `Cc1cccc(C)c1Nc1ncccc1C(=O)OCCN1CCOCC1` [Example 6, β-Morpholino ethyl 2-(2,6-dimethylanilino) nicotinate], for which, in the assay “Escape test”, the change in vivo at 16 mg/kg was -13%, the change in vivo at 32 mg/kg is -20%, the change in vivo at 64 mg/kg was -35% and the change in vivo at 128 mg/kg is -74%. Further, the change in vivo at 256 mg/kg in the assay “Escape test” was -100%. Further, in assay [2], the inhibition in vivo at 64 mg/kg turned out to be 0%, the inhibition in vivo at 128 mg/kg was 13%, the inhibition in vivo at 256 mg/kg was found to be 36% and the inhibition in vivo at 512 mg/kg came to 80%. Also, in assay [3], the inhibition in vivo at 64 mg/kg was determined as 23%, the inhibition in vivo at 128 mg/kg came out at 39%, the inhibition in vivo at 256 mg/kg is 69% and the inhibition in vivo at 512 mg/kg came to 100%.
